The record followed here is PubChem BioAssay (NCI).

Values joined by “and” are separate entries in the source; they are usually repeats but may differ in a detail not shown here. Equal entries are not always repeated.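 Cells were grown in 96-well plates and exposed to each compound for 48 hours at five concentrations; endpoints were interpolated linearly between bracketing concentrations, or set to the highest concentration if not reached. GI50 marks 50% less growth. TGI denotes the concentration required for complete inhibition of growth.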

Experiment in all cases: growth of human tumour cells (NCI), 48 h
In assay [1] the test system is UACC-257 melanoma.
Assay [2] concerns SF-539 CNS.
Assay [3] relates to HL-60(TB) leukemia.
Assay [4] has as its system CCRF-CEM leukemia.
In assay [5] the test system is UO-31 renal.
Assay [6] concerns SNB-19 CNS.
The subject of assay [7] is NCI-H226 lung.
Assay [8] relates to COLO 205 colon.
Assay [9] deals with TK-10 renal.
Assay [10] relates to NCI-H460 lung.

`O=C(NNc1ccccc1)c1ccc(Cl)c(Cl)c1`: the TGI in [1] was 13.9 µM; in assay [2], 0.133 µM; in [3], 70.4 µM; in assay [4], more than 100 µM; in [5], more than 100 µM; in assay [6] it was more than 100 µM. The TGI in [7] was more than 100 µM; in assay [8] it was 0.414 µM; in assay [9], more than 100 µM; in assay [10], more than 100 µM.

Regarding `NC(Cc1cccnn1)C(=O)O` (configuration not stated), the TGI in assay [1], in assay [2], in [3], in assay [4], in assay [5] and in assay [6] was more than 100 µM each time. For the same compound, the TGI in [7], in assay [8], in assay [9] and in assay [10] was more than 100 µM in each case.

In the case of `COc1ccc(/C=C\c2cc(OC)c(OC)c(OC)c2)cc1OC(=O)CC(N)C(=O)O` (configuration not stated), the GI50 in assay [1] was 11.9 µM; in assay [2], 0.000427 µM; in [3], 0.000165 µM; in [4], 0.000495 µM; in assay [5], 0.0017 µM; in assay [6] it was 0.000909 µM. For the same compound, the GI50 in assay [8] was 4.11 µM; in assay [9] it was 36.9 µM; in [10], 0.00048 µM. The TGI is more than 100 µM in [1]; 0.00577 µM and 0.0374 µM in assay [2]; 58.6 µM in assay [5]; 0.107 µM in assay [7]; 21 µM in [8]; more than 100 µM in assay [9].

As for `O=C(NCCCl)Nc1ccccc1`, the TGI in assay [1], in assay [3], in assay [4], in assay [5], in assay [6] and in assay [7] was more than 100 µM in each case. Also, the TGI in assay [8] and in assay [10] was more than 100 µM each time.

Regarding `COc1c(B(O)O)cccc1-c1nc2ccc3[nH]ncc3c2c2c1CCCC2`, the GI50 in assay [1] is 2.88 µM; in assay [2], 0.133 µM; in assay [3], 0.658 µM; in assay [4], 0.544 µM; in assay [5] it was 0.262 µM; in assay [6], 2.68 µM. In addition, the GI50 in assay [7] was 1.51 µM; in assay [8], 2.2 µM; in assay [9], 0.0448 µM; in assay [10], 1.43 µM. Further, the TGI is 24.6 µM in assay [1]; 2.81 µM in assay [2]; 4.87 µM in assay [3]; more than 49.7 µM in assay [4]; 14.3 µM in assay [5]; 28.1 µM in assay [6]. In addition, the TGI in [7] was determined as 12.2 µM; in [8], 6.32 µM; in [9] it was 16.4 µM; in assay [10], 11.2 µM.

On to `CSc1nnc(-c2cc3c([nH]c4ccccc43)c(-c3cccc(O)c3)n2)n1-c1ccc(C)cc1`, for which the GI50 in assay [1] was 5 µM; in assay [2], 2.81 µM; in [3], 3.02 µM; in assay [4] it was 9.4 µM; in [5], 1.93 µM; in assay [6], 3.71 µM. Besides, the GI50 in assay [7] is 3.32 µM; in assay [8], 4.49 µM; in assay [9] it was 3.01 µM; in [10], 3.31 µM. The TGI in assay [1] is 44.7 µM; in [2] it was 14.1 µM; in assay [3], more than 100 µM; in assay [4], more than 100 µM; in assay [5] it was 29.1 µM; in assay [6], 28.6 µM. Also, the TGI was found to be 18 µM in [7], 43.6 µM in assay [8], 9.64 µM in assay [9] and 14.6 µM in assay [10].

As for `C[C@@]1(C(=O)O)CCC[C@]2(C)C1CC[C@]13C[C@@](O)(CO)[C@](O)(CC[C@]12O)C3` (some centres not stated), the GI50 in assay [1], in assay [2], in assay [3], in assay [4], in [5] and in assay [6] was more than 100 µM in each case. Besides, the GI50 in assay [7], in [8], in [9] and in [10] was more than 100 µM in each case. Moreover, the TGI in assay [1], in assay [2], in assay [3], in assay [4], in assay [5] and in [6] was more than 100 µM in each case. The TGI in [7], in assay [8], in [9] and in assay [10] was more than 100 µM in each case.

`CCCCSc1nc(N)c2cn[nH]c2n1`: the GI50 in assay [1] was 19.4 µM; in [2], 18.3 µM; in [3], 23.6 µM; in [4], 23.6 µM; in assay [5] it was 26.2 µM; in assay [6] it was 37.3 µM. In addition, the GI50 in assay [7] is 15.6 µM; in [8], 19.8 µM; in [9] it was 7.99 µM; in assay [10], 19.6 µM. Moreover, the TGI in [1] was 35 µM; in assay [2], 39.1 µM; in [3], more than 100 µM; in assay [4] it was 68 µM; in assay [5], more than 80.4 µM; in [6] it was more than 76.8 µM. Besides, the TGI in [7] amounted to 36.6 µM; in assay [8], 48.8 µM; in [9], 29.4 µM; in assay [10], 51.1 µM.

As for `Cc1c(NC(=O)Nc2c(Cl)cccc2Cl)c(=O)n(-c2ccccc2)n1C`, the TGI in [1], in assay [2], in assay [3], in assay [4], in assay [5] and in [6] was more than 100 µM in each case. Besides, the TGI in assay [7], in [8], in assay [9] and in [10] was more than 100 µM each time.

With `[Cl][Hg][c]1ccc2ccccc2c1`, the GI50 in assay [1] is 1.97 µM; in assay [2] it was 2.02 µM; in assay [3], 0.655 µM; in [4], 0.924 µM; in assay [5], 4.44 µM; in assay [6] it was 2.22 µM. Besides, the GI50 in assay [7] was 14.2 µM; in assay [8], 2.3 µM; in [9], 2.92 µM; in [10], 4.18 µM. In addition, the TGI in [1] is 4.33 µM; in [2], 4.73 µM; in assay [3], 2.36 µM; in assay [4] it was 9.32 µM; in assay [5] it was 8.23 µM; in assay [6] it was 5.21 µM. Besides, the TGI in [7] is 36.3 µM; in [8] it was 5.18 µM; in [9], 6.62 µM; in assay [10] it was 23.8 µM.

Consider `Cn1cc(C2=C(c3cc[nH]c3)C(=O)NC2=O)c2ccccc21`, for which the GI50 was more than 25 µM in assay [1]; more than 25 µM in assay [2]; more than 25 µM in assay [3]; more than 25 µM in assay [4]; more than 18.5 µM in [5]; more than 25 µM in assay [6]. The GI50 is 15.5 µM in assay [7], more than 25 µM in [8], more than 25 µM in assay [9] and more than 25 µM in assay [10]. Moreover, the TGI in assay [1], in assay [2], in assay [3], in assay [4], in [5] and in assay [6] was more than 25 µM throughout. Moreover, the TGI in assay [7], in [8], in assay [9] and in assay [10] was more than 25 µM each time.

Turning to `CCCS(=O)c1nc(COC(=O)NC)c(COC(=O)NC)n1C` (configuration not stated), the TGI in assay [1], in assay [2], in assay [3], in assay [4], in [5] and in assay [6] was more than 100 µM in each case. For the same compound, the TGI in [7], in assay [8] and in assay [10] was more than 100 µM each time.

As for `COC(=O)C12C34C=CC5(CCC6(C=CC1(CC3)O6)C52C(=O)OC)O4` (configuration not stated), the TGI in assay [1], in [2], in [3], in assay [4], in [6] and in assay [7] was more than 100 µM each time. Also, the TGI in [8], in assay [9] and in assay [10] was more than 100 µM throughout.

For `Cc1ccnc2c(NC(C)CCCN)cc(O)c(O)c12` (configuration not stated), the GI50 was 22.3 µM in [1]; 18.5 µM in [2]; 2.12 µM in assay [3]; 4.62 µM in assay [4]; 61.9 µM in [5]; 27.7 µM in assay [7]. Also, the GI50 in assay [8] is 5.15 µM; in [9], 47.7 µM; in assay [10], 27.4 µM. Also, the TGI in assay [1] is 55.5 µM; in assay [2] it was 41.9 µM; in assay [3], 5.33 µM; in assay [4], 29.3 µM; in [5], more than 100 µM; in assay [7], more than 100 µM. In addition, the TGI in [8] was 23.9 µM; in assay [9], more than 100 µM; in [10], more than 100 µM.

In the case of `CC(C)N1C(C)[C@@H](c2ccccc2)O[P@@]1(=O)CC1=CCCCC1` (some centres not stated), the TGI in assay [1] is more than 100 µM; in assay [2], more than 100 µM; in assay [3] it was 63.7 µM; in assay [4], more than 100 µM; in [5], more than 100 µM; in assay [7] it was more than 100 µM. The TGI in [8], in assay [9] and in assay [10] was more than 100 µM throughout.

With `CC(C)c1[nH]nc2c(NCc3ccc(-c4ccccn4)cc3)nc(SCCN(C)C)nc12`, the GI50 in [1] is 0.017 µM; in assay [2] it was 0.0745 µM; in [3] it was less than 0.0156 µM; in assay [4], 0.0246 µM; in [6] it was 0.0244 µM; in [7] it was 0.24 µM. For the same compound, the results for the GI50 in assay [8], in assay [9] and in assay [10] were less than 0.015 µM, 0.0456 µM and 0.112 µM, respectively. The TGI in [1] turned out to be 0.0826 µM; in assay [2] it was 0.242 µM; in [3], 0.0313 µM; in [4], 4.87 µM; in [6], 12.6 µM; in assay [7] it was 0.706 µM. Besides, the figures for the TGI in assay [8], in [9] and in [10] were 0.0297 µM, 11.9 µM and 11.7 µM, respectively.

For the compound `O=C(N=Nc1c(Cl)c(O)c2ccccc2c1O)C(=O)Nc1cccc(C(F)(F)F)c1`, the GI50 is 3.51 µM in assay [2]; 3.35 µM in assay [3]; 2.84 µM in [4]; 1.53 µM in [5]; 4.6 µM in assay [6]; 6.78 µM in [7]. For the same compound, the figures for the GI50 in assay [8], in [9] and in assay [10] were 10.9 µM, 14.2 µM and 3.3 µM, respectively. For the same compound, the TGI in [2] came to 14.4 µM; in assay [3], 10.2 µM; in [4], 8.77 µM; in [5], 12.2 µM; in [6], 17.6 µM; in [7] it was 28.2 µM. Also, the results for the TGI in [8], in assay [9] and in assay [10] were 24.6 µM, 27.4 µM and 12.4 µM, respectively.

For `CN(CCCN1C(=O)c2cccc3cc([N+](=O)[O-])cc(c23)C1=O)CCN(C)CCCN1C(=O)c2cccc3cc([N+](=O)[O-])cc(c23)C1=O`, the TGI in assay [1], in assay [2], in assay [3], in [4], in assay [6] and in assay [7] was more than 39.3 µM throughout. Besides, the TGI in [8], in [9] and in assay [10] was more than 39.3 µM throughout.

Consider `CCCCCCCCC(C)CCCCCCCCC(=O)OCC(COP(=O)([O-])OCC[N+](C)(C)C)OC(=O)CCCCCCCCC(C)CCCCCCCC` (configuration not stated), for which the TGI in assay [1], in assay [3], in assay [4], in [5], in [6] and in assay [7] was more than 100 µM throughout. Besides, the TGI in [8], in [9] and in assay [10] was more than 100 µM throughout.
